“Also recorded” adds a separate entry of the source. Where two headings read alike, the source gives them in different places. Where a SMILES comes first, the peptide text is derived from it. [ ]: non-standard residue; d: D form.

The record followed here is patent publication US10526370B2, “Pentapeptide associated with integrin receptor alpha vbeta3” (priority 2015, dated 2020).

The nature of data set [1]: In vitro cellular cytotoxicity assay. Format: cell-based. As to conditions: human. Here is the method:
When the U87MG cells, MCF-7 cells and normal liver cells L02 were grown to 90% confluent or higher, the cells were digested with 0.25% trypsin and then suspended in a complete growth medium to obtain a single cell suspension. The cells were plated at a density of 3000 cells/well in a 96-well plate, and cultured at 37° C. in an incubator containing 5% CO2. After 24-hour incubation, the medium was changed to a low-serum culture medium supplemented with 1% FBS. Then, the pentapeptide was added at different concentration gradients, to achieve a final concentration of 2.5, 5, 10, 20, 40, 80, 100 and 200 μM.

The subject of data set [2] is U87MG cells. The data set can be described thus: In vitro cell affinity test (flow cytometry). As to conditions: rhodamine-labeled peptides, FIG. 1. In kind it is cell-based, human. Here is the method:
The human malignant glioma cells (U87MG) and the human breast cancer cells (MDA-MB-231) were cultured in a 6-well plate for 12 hours. Then, 100 μL of a polypeptide fluorescent probe labeled with rhodamine B (final concentration 250 μM) was added and co-incubated for 2 hours with gently shaking on a shaker at 37° C. Next, the cells were digested with 0.05% trypsin and washed off from the 6-wells plate. The cells were re-suspended in 1 mL PBS buffer (pH 7.2), and centrifuged (3500 r, 5 min). The supernatant was aspirated and discarded. The pellet was washed twice with a PBS buffer (pH7.2). After washing, the cells were re-suspended in a PBS buffer (pH 7.2). The mean fluorescence intensity (MFI) of the cells was quantified by using a flow cytometer. The higher the fluorescence intensity is, the greater the affinity for the cells will be. When the probe has a high affinity for the receptor on the cells, the cells have a high value of MFI measured by the flow cytometer. […] The dye used as a blank has a MFI of 25.

For data set [3], the system named is L02 cells. The data set can be described thus: In vitro cellular uptake assay (laser confocal microscopy). In kind it is cell-based. As to conditions: L02, 500 μmol/L, 2-hour incubation at 37° C., FIG. 4. The protocol: (§1) The cultured human glioma cells U87MG, human breast cancer cells MDA-MB-231, human breast cancer cells MCF-7 and normal liver cells L02 were transferred to a confocal dish respectively, and incubated overnight. Then, the rhodamine B-labeled pentapeptide was added at the same concentration (500 μmol/L). The cyclic RGD labeled with the rhodamine B is added and used as a positive control. After 2-hour incubation at 37° C., the cells were stained with 12 μg/mL of the nuclear staining reagent Hochest 33342. Finally, the intracellular uptake of the probe was observed under a laser confocal microscope.

Data set [4] deals with MCF-7 cells. The data set is described as above. Format: cell-based, human. As to conditions: MCF-7, 500 μmol/L, 2-hour incubation at 37° C., FIG. 4. Here is the method:
as §1

Data set [5] concerns U87MG cells. Described as above. Format: cell-based, human. As to conditions: 500 μmol/L, 2-hour incubation at 37° C., FIG. 3. Here is the method:
as §1

Data set [6] has as its system MDA-MB-231 cells. Described as above. As to conditions: MDA-MB-231, 500 μmol/L, 2-hour incubation at 37° C., FIG. 3. Format: cell-based, human. The protocol:
as §1

Consider `CSCC[C@H](NC(=O)[C@H](CC(N)=O)NC(=O)[C@@H](CCCNC(=N)N)NC(=O)[C@H](Cc1c[nH]c2ccccc12)NC(=O)[C@@H](N)CCCNC(=N)N)C(N)=O` [pentapeptide, Arg-Trp-Arg-Asn-Met] (H-RW[dR]NM-NH2; N-terminus and C-terminus assumed), for which the viability in data set [1] (MCF-7 cells, MCF-7, pentapeptide 2.5-200 μM, FIG. 6, read-out: cell survival rate) is at least 80%; in data set [1] (U87MG cells, pentapeptide 2.5-200 μM, FIG. 6, read-out: cell survival rate), at least 80%; in data set [1] (normal liver cells L02, L02, pentapeptide 2.5-200 μM, FIG. 6, read-out: cell survival rate), at least 80%. In addition, the “affinity for U87 cells (comparison in words)” value in data set [2] was “greatest affinity”. The “intracellular uptake of the probe (fluorescence intensity)” value in data set [3] was “poor affinity and low”; in data set [4], “poor affinity and low”; in data set [5], “strong ability to uptake; also recorded: strong fluorescence intensity”; in data set [6] it was “strong ability to uptake; also recorded: strong fluorescence intensity”.
